Results from ChEMBL document CHEMBL3885861, “Open TG-GATES”.

Species: Rattus norvegicus
Assay: Open TG-GATES - Regimen: Daily Repeat
Assay type: toxicity, organism-based, Sprague-Dawley
Set-up: regimen Daily Repeat, gender Male, age 6 weeks
Conditions: in vivo, iv, 6 mg/kg, route intravenous injection, dose level Middle; for APTT / Bas / Eos / Fbg / Hb / Ht / Lym / MCH / MCHC / MCV / Mono / Neu / PT / Plat / RBC / Ret / WBC: tissue Blood; for KIDNEY_L / KIDNEY_R / KIDNEY_TOTAL: tissue Kidney; for LIVER: tissue Liver; for A/G / ALP / ALT / AST / BUN / CRE / Ca / Cl / DBIL / GLC / IP / K / LDH / Na / PL / RALB / TBIL / TC / TG / TP / gamma-GTP: tissue Plasma

## NCCBr [BROMOETHANAMINE]
72 h, time 3 day
  TERMINAL_BW: 227.7 g
  APTT: 22.4 s
  Bas: 0%
  Eos: 1%
  Fbg: 318.4 mg/dL
  Hb: 13.8 g/dL
  Ht: 40%
  Lym: 83.6%
  MCH: 21.2 pg
  MCHC: 34.4%
  MCV: 61.7 fL
  Mono: 2%
  Neu: 12.2%
  PT: 16.2 s
  Plat: 121.7 x10_4/uL
  RBC: 648 x10_4/ul
  Ret: 4.6%
  WBC: 75.6 x10_2/uL
  KIDNEY_L: 1 g
  KIDNEY_R: 1 g
  KIDNEY_TOTAL: 2 g
  LIVER: 10.9 g
  A/G: 1.3
  ALP: 1767.4 IU/L
  ALT: 39.6 IU/L
  AST: 69 IU/L
  BUN: 15.6 mg/dL
  CRE: 0.2 mg/dL
  Ca: 10.9 mg/dL
  Cl: 106.6 meq/L
  DBIL: 0 mg/dL
  GLC: 169 mg/dL
  IP: 6.9 mg/dL
  K: 4.6 meq/L
  LDH: 209.6 IU/L
  Na: 142 meq/L
  PL: 138.8 mg/dL
  RALB: 3.1 g/dL
  TBIL: 0.006 mg/dL
  TC: 71 mg/dL
  TG: 113.8 mg/dL
  TP: 5.6 g/dL
  gamma-GTP: 1.4 IU/L
[…], time 7 day
  TERMINAL_BW: 261 g
  APTT: 23.5 s
  Bas: 0%
  Eos: 1.4%
  Fbg: 282.6 mg/dL
  Hb: 13.9 g/dL
  Ht: 40.1%
  Lym: 83%
  MCH: 21.6 pg
  MCHC: 34.7%
  MCV: 62.2 fL
  Mono: 2.8%
  Neu: 11.8%
  PT: 15.8 s
  Plat: 123.4 x10_4/uL
  RBC: 645 x10_4/ul
  Ret: 3.9%
  WBC: 116 x10_2/uL
  KIDNEY_L: 1.1 g
  KIDNEY_R: 1.1 g
  KIDNEY_TOTAL: 2.1 g
  LIVER: 12.5 g
  A/G: 1.2
  ALP: 1617 IU/L
  ALT: 39.4 IU/L
  AST: 71.4 IU/L
  BUN: 17.6 mg/dL
  CRE: 0.2 mg/dL
  Ca: 10.8 mg/dL
  Cl: 107.4 meq/L
  DBIL: 0 mg/dL
  GLC: 182.2 mg/dL
  IP: 6.9 mg/dL
  K: 4.5 meq/L
  LDH: 204 IU/L
  Na: 141 meq/L
  PL: 140 mg/dL
  RALB: 3 g/dL
  TBIL: 0.002 mg/dL
  TC: 72.4 mg/dL
  TG: 119 mg/dL
  TP: 5.5 g/dL
  gamma-GTP: 1.2 IU/L
[…], time 14 day
  TERMINAL_BW: 314.5 g
  APTT: 22.4 s
  Bas: 0%
  Eos: 1.2%
  Fbg: 327.4 mg/dL
  Hb: 13.8 g/dL
  Ht: 40.3%
  Lym: 85.2%
  MCH: 20.4 pg
  MCHC: 34.3%
  MCV: 59.5 fL
  Mono: 2%
  Neu: 10.6%
  PT: 15.5 s
  Plat: 132 x10_4/uL
  RBC: 676.6 x10_4/ul
  Ret: 3.8%
  WBC: 119.2 x10_2/uL
  KIDNEY_L: 1.3 g
  KIDNEY_R: 1.2 g
  KIDNEY_TOTAL: 2.5 g
  LIVER: 14.7 g
  A/G: 1.1
  ALP: 1499 IU/L
  ALT: 41 IU/L
  AST: 69 IU/L
  BUN: 18.2 mg/dL
  CRE: 0.2 mg/dL
  Ca: 10.8 mg/dL
  Cl: 107 meq/L
  DBIL: 0 mg/dL
  GLC: 170.2 mg/dL
  IP: 7.1 mg/dL
  K: 4.4 meq/L
  LDH: 142.6 IU/L
  Na: 143.2 meq/L
  PL: 145.8 mg/dL
  RALB: 3 g/dL
  TBIL: 0.004 mg/dL
  TC: 77.6 mg/dL
  TG: 98.2 mg/dL
  TP: 5.8 g/dL
  gamma-GTP: 2.8 IU/L
[…], time 28 day
  TERMINAL_BW: 361.2 g
  APTT: 26 s
  Bas: 0%
  Eos: 1.4%
  Fbg: 312.2 mg/dL
  Hb: 15.8 g/dL
  Ht: 42.9%
  Lym: 84.2%
  MCH: 20.4 pg
  MCHC: 36.9%
  MCV: 55.4 fL
  Mono: 1.4%
  Neu: 12.2%
  PT: 16.4 s
  Plat: 110.1 x10_4/uL
  RBC: 775.2 x10_4/ul
  Ret: 2.2%
  WBC: 90.4 x10_2/uL
  KIDNEY_L: 1.3 g
  KIDNEY_R: 1.4 g
  KIDNEY_TOTAL: 2.7 g
  LIVER: 15.7 g
  A/G: 1.1
  ALP: 1273.6 IU/L
  ALT: 32.8 IU/L
  AST: 55 IU/L
  BUN: 18.2 mg/dL
  CRE: 0.2 mg/dL
  Ca: 10.5 mg/dL
  Cl: 106.4 meq/L
  DBIL: 0 mg/dL
  GLC: 185.8 mg/dL
  IP: 6.5 mg/dL
  K: 4.1 meq/L
  LDH: 118 IU/L
  Na: 145 meq/L
  PL: 131.8 mg/dL
  RALB: 3.2 g/dL
  TBIL: 0.004 mg/dL
  TC: 65.2 mg/dL
  TG: 112.2 mg/dL
  TP: 6.2 g/dL
  gamma-GTP: 2.6 IU/L
